Data from PubChem BioAssay AID463203 (Broad Institute, 2010).
Active and inactive are the calls of the source.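 Rule for the calls: active = more than half of replicate measurements showing over 20% loss of kinase signal relative to plate controls; inconclusive = some but at most half of replicates over 20% loss; inactive = no replicate over 20% signal loss.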

Biological target: Glycogen synthase kinase-3 alpha (Homo sapiens) (UniProt P49840)
Experiment: concentration-response blocking of human GSK3A – biochemical, luminescence, cell-free homogeneous, retest, dose response (AID 463203)
Conditions: GSK-3 alpha enzyme, ADP-Glo luminescence, 60 min

Chain of Glycogen synthase kinase-3 alpha (Homo sapiens) (P49840 whole entry, looked up): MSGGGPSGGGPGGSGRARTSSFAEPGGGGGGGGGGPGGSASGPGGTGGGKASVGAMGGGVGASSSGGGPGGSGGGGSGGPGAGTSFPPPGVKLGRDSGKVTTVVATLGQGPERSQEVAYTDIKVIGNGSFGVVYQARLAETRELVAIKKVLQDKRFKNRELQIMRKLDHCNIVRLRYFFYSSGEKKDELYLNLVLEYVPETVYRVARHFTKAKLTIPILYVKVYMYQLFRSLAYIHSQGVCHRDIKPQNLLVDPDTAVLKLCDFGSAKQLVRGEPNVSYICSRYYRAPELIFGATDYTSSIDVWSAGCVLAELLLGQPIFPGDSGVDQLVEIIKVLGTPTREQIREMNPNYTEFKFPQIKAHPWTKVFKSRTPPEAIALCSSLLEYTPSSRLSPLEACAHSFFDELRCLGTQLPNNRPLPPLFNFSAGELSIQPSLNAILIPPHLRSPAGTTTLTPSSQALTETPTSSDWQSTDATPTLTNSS

Row | Structure (SMILES) | AC50
1 | Cc1ccc(/C=N/NC(=O)c2nnn(-c3nonc3N)c2CN(C)C)o1 | > 30 µM (inactive)
2 | CC(/C=N/NC(=O)CSc1nc2ccccc2n1C)=C\c1ccco1 | > 30 µM (inactive)
3 | CCCCOC(=O)Nc1nnc(COc2ccccc2)s1 | > 30 µM (inactive)
4 | Cc1nc(S/C(=C/c2ccc(-c3ccc(C(=O)O)cc3)o2)C(=O)O)n[nH]1 | 21.4 µM
5 | CCC(=O)N1CCN(c2cc(NCC3CCCO3)c(F)cc2[N+](=O)[O-])CC1 (centres undefined) | 21.7 µM
6 | C#CCOCCOCCOCCNc1nc(N2CCN(C(=O)CCCCCCCCCCNC(=O)[C@H](CCCCN)n3cc(C)nn3)CC2)nc(N2CCN(C(=O)CCCCCCCCCCNC(=O)[C@@H]([C@H](C)CC)n3cc(CCCCCN)nn3)CC2)n1 | > 30 µM (inactive)
7 | Cc1ccc(-c2cc(-c3n[nH]c(=S)o3)c3ccccc3n2)cc1 | 27.7 µM
8 | CC(/C=N/NC(=O)c1nnn(-c2nonc2N)c1C(C)C)=C\c1ccccc1 | > 30 µM (inactive)
9 | O=C(O)Cn1c(=O)c2c3c(sc2n(Cc2ccccc2)c1=O)CCCC3 | > 30 µM (inactive)
10 | CC1(C)CC(=O)C(C=NCCc2ccc(O)cc2)=C(O)C1 | > 30 µM (inactive)
11 | COc1ccc(-c2nsc3c(N4CCCCC4C)ncnc23)cc1 (centres undefined) | > 30 µM (inactive)
12 | COc1ccc(-n2c(C)c([N+](=O)[O-])c3ccc(O)c(CN4CCCCC4)c32)cc1 | 19.1 µM
13 | COc1ccc(-c2cc(C(=O)N3CCN(c4ccccc4OC)CC3)no2)cc1OC | > 30 µM (inactive)
14 | O=C(NC(=S)Nc1cccc2cnccc12)c1ccccc1 | > 30 µM (inactive)
15 | CC(=O)N1CCN(c2ccccc2NC(=O)c2ccc(Br)o2)CC1 | 10.3 µM
16 | COc1ccc(C2=Nn3c(nnc3-c3ccncc3)SC2)cc1OC | 2.37 µM
17 | NC(=O)c1cn(C2OC(CO)C(O)C2O)c2ncnc(N)c12 (centres undefined) | 6.52 µM
18 | O=C(N/N=C/c1cccnc1)c1cccc(S(=O)(=O)N2CCCC2)c1 | > 30 µM (inactive)
19 | Cc1nnc(NC(=O)Oc2ccccc2)s1 | > 30 µM (inactive)
20 | O=[N+]([O-])c1cccnc1NCCc1ccccc1 | > 30 µM (inactive)
21 | O=C(O)Cn1c(=O)c2c3c(sc2n(Cc2ccc(F)cc2)c1=O)CCCC3 | > 30 µM (inactive)
22 | O=c1cc(-c2ccc(O)cc2)oc2c1ccc1ccccc12 | 1.33 µM
23 | O=[N+]([O-])c1ccc(NCCCN2CCOCC2)nc1 | > 30 µM (inactive)
24 | Cc1nc(SCC(=O)NCC2CCCO2)c2c(C)c(C)sc2n1 (centres undefined) | > 30 µM (inactive)
25 | COc1ccccc1NC(=O)CSc1nnc(-c2ccccc2)o1 | > 30 µM (inactive)

Row | Structure (SMILES) | AC50
26 | O=C(CSc1nc2[nH]ncc2c(=O)n1-c1ccccc1)NCc1cccs1 | > 30 µM (inactive)
27 | N#Cc1c(Nc2ccccc2)c(C=O)c[nH]c1=O | > 30 µM (inactive)
28 | Cc1nnc(SCC(=O)N(C(C)C)C(C)C)nc1C | > 30 µM (inactive)
29 | COc1c(/C=C2\SC(=Nc3ccccc3Cl)NC2=O)cccc1[N+](=O)[O-] | > 30 µM (inactive)
30 | CCOc1ccc(N2C(=O)C3C(c4ccccc4F)NN(C(=O)c4ccc(C)cc4)C3C2=O)cc1 (centres undefined) | > 30 µM (inactive)
31 | N#Cc1c(Nc2ccccc2)c(/C=N/N=C/c2ccccc2)c[nH]c1=O | > 30 µM (inactive)
32 | CC(=O)N1CCc2c(sc(NC(=O)c3cccc(N4C(=O)CCC4=O)c3)c2C(N)=O)C1 | > 30 µM (inactive)
33 | Cc1cc(C(C#N)c2cccc(Cl)c2)n2ncnc2n1 (centres undefined) | 5.78 µM
34 | Fc1ccc(C2=Nn3c(nnc3-c3ccco3)SC2)cc1 | > 30 µM (inactive)
35 | CN(C)c1ccc(/C=N/NC(=O)c2ccccc2Cl)cc1 | > 30 µM (inactive)
36 | Cc1ccnc(NC(=O)CCC(=O)N(CC(=O)NCc2ccc(F)cc2)Cc2ccccc2)c1 | 11.4 µM
37 | CCOC(=O)c1cc(-c2ccc(F)cc2)n(CC(=O)NCc2ccccn2)c1C | > 30 µM (inactive)
38 | Cc1ccnc(NC(=O)CCC(=O)N(CC(=O)NCc2ccccc2)Cc2ccco2)c1 | 13.4 µM
39 | Cc1ccc(C(=O)N2NC(c3ccc(F)cc3)C3C(=O)N(c4ccc(C)c(C)c4)C(=O)C32)cc1 (centres undefined) | > 30 µM (inactive)
40 | CC1=NN(c2nc(-c3ccc(Cl)cc3)cs2)C(=O)C1 | > 30 µM (inactive)
41 | COc1cccc(/C=N/NC(=O)COc2cccc3cccnc23)c1O | > 30 µM (inactive)
42 | N#CC1=C2SCN(Cc3ccccc3)CN2C(=O)CC1c1ccccc1F (centres undefined) | > 30 µM (inactive)
43 | O=c1[nH]cccc1-c1nc2ccccc2[nH]1 | 4.92 µM
44 | O=C(COC(=O)c1ccc(F)cc1F)Nc1ccc(Cl)cn1 | > 30 µM (inactive)
45 | Cc1cccc(OCC(=O)NNC(=O)c2cc3ccccc3oc2=O)c1 | > 30 µM (inactive)
46 | Cc1ccccc1Cn1c(-c2ccc(=O)[nH]c2)nc2ccccc21 | > 30 µM (inactive)
47 | Cc1c(C)n(CCCN(C)C)c2ncnc(NC3CCCCC3)c12 | > 30 µM (inactive)
48 | CCOC(=O)c1[nH]c2c(c1C)C(=O)CC(c1ccc(OC)c(OC)c1)C2 (centres undefined) | > 30 µM (inactive)
49 | C[n+]1cccc(/C=N/Nc2nc(Cl)c(C#N)c(Cl)c2Cl)c1 | > 30 µM (inactive)
50 | CCCOc1ccc(-c2c(C(=O)N/N=C(\C)c3ccncc3)nnn2-c2nonc2N)cc1 | > 30 µM (inactive)

Row | Structure (SMILES) | AC50
51 | Fc1ccc(/C=N/Nc2nccnc2Cl)cc1 | > 30 µM (inactive)
52 | CCC(=N\NC(=O)COc1ccccc1OC)/C(CC)=N/NC(=O)COc1ccccc1OC | > 30 µM (inactive)
53 | O=C(COC(=O)c1cc([N+](=O)[O-])ccc1N1CCOCC1)Nc1ccc(Cl)cn1 | 4.79 µM
54 | CCCCC(NS(=O)(=O)c1ccc(OC)cc1)C(=O)O (centres undefined) | > 30 µM (inactive)
55 | Oc1ccc2c(c1)oc1cc(O)ccc12 | 12 µM
56 | Cc1cc(/C=N/O)c(C)n1-c1ccc(Br)cc1 | > 30 µM (inactive)
57 | CN(C)C(=O)Oc1cccc2c(OC(=O)N(C)C)cccc12 | > 30 µM (inactive)
58 | CCCc1nnc(NC(=O)CCN2C(=O)c3ccccc3C2=O)s1 | > 30 µM (inactive)
59 | Clc1nccnc1N/N=C/c1ccc(Br)cc1 | > 30 µM (inactive)
60 | COc1ccc(/C=C/c2nc3ccccc3n2C)cc1 | 11.4 µM
61 | CN1/C(=C/C=C(C#N)C#N)C(C)(C)c2ccccc21 | > 30 µM (inactive)
62 | Cc1ccccc1NC1=NCCCS1 | > 30 µM (inactive)
63 | COC(=O)c1cnn(C(=O)c2ccccc2Br)c1N | > 30 µM (inactive)
64 | O=c1[nH]c(=O)n(C2CCCCC2)c(O)c1C=NCCCn1ccnc1 | 4.06 µM
65 | CC1CCC2(CC1)NC(=O)N(CC(=O)Nc1ccc(C(N)=O)cc1)C2=O (centres undefined) | > 30 µM (inactive)
66 | O=C(O)c1cn(-c2ccccc2)nc1-c1cccnc1 | > 30 µM (inactive)
67 | COc1cc(OC)cc(C2C(C#N)=C(N)Oc3n[nH]c(-c4cccnc4)c32)c1 (centres undefined) | > 30 µM (inactive)
68 | COc1ccc(-c2cn3cccnc3n2)cc1NC(=O)C1CCCC1 | > 30 µM (inactive)
69 | CSc1ncccc1-c1nc2ccccc2[nH]1 | > 30 µM (inactive)
70 | Oc1ccc2oc3c(c2c1C=NCc1ccncc1)CCCC3 | > 30 µM (inactive)
71 | Cc1ccc(C2C(C#N)=C(N)Oc3nc(-c4ccccc4)[nH]c32)o1 (centres undefined) | > 30 µM (inactive)
72 | Cn1c(=O)c2[nH]cnc2n(-c2ccccc2)c1=O | > 30 µM (inactive)
73 | CCOC(=O)Nc1nc(C)c(C(=O)c2ccc(Cl)cc2)s1 | > 30 µM (inactive)
74 | COc1ccc(-c2cc(C(F)(F)F)nc(SCC(=O)NCc3cccs3)n2)cc1 | > 30 µM (inactive)
